Assay results taken from patent EP0624368A2, “Use of a composition for stimulating the synthesis of glutathione in the manufacture of a medicament for the treatment of acquired immune deficiency syndrome” (priority 1993, dated 1994).

What was measured:
Type in all cases: cell-based
HIV-1 (strain IIIB) [1] = experiment: HIV p24 antigen assay in PBMC (single and combination treatment); conditions: 50 IU/well HIV
Source text: (§1) Three cell culture systems were used in this study: H-9 cells; MT-2 cells; and normal human peripheral blood mononuclear cells (PBMC). H-9 cells were obtained from Advanced Biotechnology Inc. (ABI). MT-2 cells were obtained from Dr. J. Armstrong of the University of Pittsburgh. MT-2 cells are HTLV-I transformed human T lymphocytes and continuously produce HTLV-I virions. PBMC were obtained from healthy donors, purified by Ficol-Hypaque, and stimulated with PHA mitogen before being used in the efficacy studies. The initial stock of HIV-1 (strain IIIB) used in this study was obtained from ABI and the working stocks were produced.
(§2) Cells were collected, put into tissue culture plates and incubated with different concentrations of drugs in RPMI 1640 tissue culture medium for 20 minutes prior to HIV challenge. Infection was carried out by inoculating 20-100 HIV infectious units (IU)/well inoculum without removing the drugs. The untreated cells exposed to HIV challenge served as positive controls. The normal untreated uninfected cells served as negative controls.
(§3) When evaluating the efficacies of drugs in H-9 cells and PBMC systems, only HIV p24 assays were used. To calculate the ED₅₀ values, a second order linear regression was applied on the logarithm of the tested doses of different drugs against the OD readings obtained from either MTT assays or HIV p24 assays.
(§4) Cells were collected, put into tissue culture plates and incubated with different combinations of drugs for 20 minutes prior to HIV infection in the combined treatment studies. Infection was carried out by inoculating 20-100 HIV IU/well inoculum without removing the drugs. The inocula were the same as the ones used in the single drug treatment to obtain the ED₅₀ values. Both MTT assays and HIV p24 antigen assays were used in evaluation of drug effects in MT-2 cells but only HIV p24 antigen assays were used for H-9 cells or PBMC.
(§5) Therefore, if the CI is less than 1, it indicates synergism among the tested drugs. Similarly, if the CI is equal to 1, the effects are additive, while a CI value greater than 1 is indicative of an antagonistic effect.

HIV-1 (strain IIIB) [2] = experiment: HIV p24 antigen assay in H-9 cells (single and combination treatment); conditions: 80 IU/well HIV; for OD readings at 450 nm (HIV p24 antigen): H-9
Source text: as §1, §2, §3, §4, §5

HIV-1 (strain IIIB) [3] = experiment: MTT assay of protection against acute HIV infection in MT-2 cells; conditions: 100 IU/well HIV; for OD readings at 540 nm (MTT assay): MT-2, Day 6 cultures
Source text: as §1, §2
(§6) Both the MTT assay and HIV p24 ELISA were used for evaluation of drug efficacies with MT-2 cells. The MTT assay is based upon the metabolic reduction of the MTT tetrazolium bromide dye in live cells. The OD readings (at 540 nm) obtained from the MTT assay are inversely correlated to the levels of cell mortality due to HIV infection or the cytotoxic effect of drugs. […] The HIV p24 antigen assay measures the level of HIV antigen present in the sample (i.e., culture supernatant).
as §3

HIV-1 (strain IIIB) [4] = experiment: HIV p24 antigen assay in MT-2 cells (single and combination treatment); conditions: 20 IU/well HIV; for OD readings at 450 nm (HIV p24 antigen): MT-2
Source text: as §1, §2, §6, §3, §4, §5

O=c1[nH]cnc2c1ncn2[C@H]1CC[C@@H](CO)O1 [ddI]
OD readings at 450 nm (HIV p24 antigen) (HIV-1 (strain IIIB) [1]; 0.25 μM): 2.730
OD readings at 450 nm (HIV p24 antigen) (HIV-1 (strain IIIB) [1]; 1 μM): 2.658
OD readings at 450 nm (HIV p24 antigen) (HIV-1 (strain IIIB) [1]; 4 μM): 0.672
OD readings at 450 nm (HIV p24 antigen) (HIV-1 (strain IIIB) [1]; 16 μM): 0.212
OD readings at 450 nm (HIV p24 antigen) (HIV-1 (strain IIIB) [1]; 64 μM): 0.098
OD readings at 450 nm (HIV p24 antigen) (HIV-1 (strain IIIB) [2]; 0.25 μM): 3.984
OD readings at 450 nm (HIV p24 antigen) (HIV-1 (strain IIIB) [2]; 1 μM): 1.542
OD readings at 450 nm (HIV p24 antigen) (HIV-1 (strain IIIB) [2]; 4 μM): 0.772
OD readings at 450 nm (HIV p24 antigen) (HIV-1 (strain IIIB) [2]; 16 μM): 0.716
OD readings at 450 nm (HIV p24 antigen) (HIV-1 (strain IIIB) [2]; 64 μM): 0.329
Calculated single treatment ED50 (HIV-1 (strain IIIB) [2]; H-9 cells, p24 assay): 2.424 µM
OD readings at 540 nm (MTT assay) (HIV-1 (strain IIIB) [3]; 0.25 μM): 0.551
OD readings at 540 nm (MTT assay) (HIV-1 (strain IIIB) [3]; 1 μM): 0.603
OD readings at 540 nm (MTT assay) (HIV-1 (strain IIIB) [3]; 4 μM): 0.561
OD readings at 540 nm (MTT assay) (HIV-1 (strain IIIB) [3]; 16 μM): 0.880
OD readings at 540 nm (MTT assay) (HIV-1 (strain IIIB) [3]; 64 μM): 1.135
Calculated single treatment ED50 (HIV-1 (strain IIIB) [3]; MT-2 cells, MTT assay): 2.778 µM
OD readings at 450 nm (HIV p24 antigen) (HIV-1 (strain IIIB) [4]; 0.25 μM): 3.351
OD readings at 450 nm (HIV p24 antigen) (HIV-1 (strain IIIB) [4]; 1 μM): 3.025
OD readings at 450 nm (HIV p24 antigen) (HIV-1 (strain IIIB) [4]; 4 μM): 0.710
OD readings at 450 nm (HIV p24 antigen) (HIV-1 (strain IIIB) [4]; 16 μM): 1.167
OD readings at 450 nm (HIV p24 antigen) (HIV-1 (strain IIIB) [4]; 64 μM): 1.131
Calculated single treatment ED50 (HIV-1 (strain IIIB) [4]; MT-2 cells, p24 assay): 4.069 µM
